Counter-ions that a name gives are not always drawn. Like-named read-outs stand apart in the source and are kept apart here.

The subject of data set [1] is characteristic stretching or writhing syndrome induced by phenylquinone. Nature of the data set: standard phenylquinone writhing test (PQW), analgesic activity, oral. The note with it: Mus musculus. In general terms: An intraperitoneal irritant provokes the stretching counted in writhing tests.
The test system of data set [2] is morphine-induced Straub tail. Description: narcotic antagonist (anti-Straub tail) test, prevention of morphine-induced Straub tail. Conditions: Mus musculus, ip, 10 min, read-out: MOUSE ED50 VALUES: ANTI-STRAUB TAIL.
The next data set is described as follows: in vivo. Conditions: mouse, sc, 135 mg/kg.
Setting [3] is: read-out: MOUSE ED50 VALUES: PQW.
[4] abbreviates: 0.5 h, read-out: MOUSE ED50 VALUES: PQW (peak time value).

Consider `COc1ccc2c3c1OC1C(F)C=CC4C(C2)N(C)CCC341` (stereo not drawn) [Ayer 3,137,701, reference compound], for which the ED50 (usually the dose at which the effect has come halfway, by size or by number of responders) in data set [1] (setting [3]) is 32 mg/kg; in data set [2], greater than 162 mg/kg.
Regarding `COc1ccc2c3c1O[C@H]1[C@@H](O)C=C[C@H]4[C@@H](C2)N(C)CC[C@@]341` [Codeine PO4, reference compound], the ED50 in data set [1] (setting [4]) was 4.7 mg/kg; in data set [2] it was greater than 140 mg/kg.
`COc1ccc2c3c1O[C@H]1C(F)=CC[C@H]4[C@@H](C2)N(C)CC[C@]314` [Compound 2, 17-Methyl-6,7-didehydro-4,5-epoxy-6-fluoro-3-methoxymorphinan Hydrochloride]: the figures for the ED50 (in data set [1] (setting [3]); in data set [2]; in “in vivo”) were 8 mg/kg, 94 mg/kg and 26 mg/kg, respectively.
As for `COc1ccc2c3c1O[C@H]1C(F)(F)CC[C@H]4[C@@H](C2)N(C)CC[C@@]341` [Compound 4, 17-Methyl-4,5-epoxy-6,6-difluoro-3-methoxymorphinan Hydrochloride], the figures for the ED50 (in data set [1] (setting [3]); in data set [2]; in the data set “in vivo”) were 2.7 mg/kg, greater than 81 mg/kg and 10 mg/kg, respectively.
Regarding `COc1ccc2c3c1O[C@H]1C(F)(F)CC[C@H]4[C@@H](C2)N(CC2CCC2)CC[C@@]341` [Compound 9, 17-Cyclobutylmethyl-4,5-epoxy-6,6-difluoro-3-methoxymorphinan Hydrochloride], the values for the ED50 (in data set [1] (setting [4]); in data set [2]; in the data set “in vivo”) were 2.9 mg/kg, 4.1 mg/kg and greater than 135 mg/kg, respectively.
In the case of `COc1ccc2c3c1O[C@H]1C(F)(F)CC[C@@]4(F)[C@@H](C2)N(CC2CC2)CC[C@]314` [Compound 13, 17-Cyclopropylmethyl-4,5-epoxy-6,6,14β-trifluoro-3-methoxymorphinan H ydrochloride], the ED50 (in data set [1] (setting [3]); in the data set “in vivo”) was greater than 135 mg/kg in each case.
For `COc1ccc2c3c1O[C@H]1C(F)(F)CC[C@@]4(F)[C@@H](C2)N(CC2CCC2)CC[C@]314.Cl` [Compound 17, 17-Cyclobutylmethyl-4,5α-epoxy-6,6,14β-trifluoro-3-methoxymorphinan Hydrochloride], the figures for the ED50 (in data set [1] (setting [3]); in data set [2]; in the data set “in vivo”) were greater than 135 mg/kg, 17 mg/kg and greater than 135 mg/kg, respectively.
As to `COc1ccc2c3c1O[C@H]1C(F)(F)CC[C@H]4[C@@H](C2)N(CC2CC2)CC[C@@]341` [Compound 22, 17-Cyclopropylmethyl-4,5-epoxy-6,6-difluoro-3-methoxymorphinan], the ED50 in data set [1] (setting [4]) was 2.2 mg/kg; in data set [2], 0.15 mg/kg; in the data set “in vivo”, greater than 54 mg/kg.
`COc1ccc2c3c1O[C@H]1C(F)=CC[C@H]4[C@@H](C2)N(CC2CC2)CC[C@]314` [Compound 23, 17-Cyclopropylmethyl-6,7-didehydro-4,5-epoxy-6-fluoro-3-methoxymorphinan]: the ED50 was 18 mg/kg in data set [1] (setting [3]), 0.21 mg/kg in data set [2] and greater than 135 mg/kg in the data set “in vivo”.
As to `COc1ccc2c3c1O[C@H]1C(F)(F)CC[C@@]4(O)[C@@H](C2)N(CC2CCC2)CC[C@]314.Cl` [Compound 30, 17-Cyclobutylmethyl-4,5α-epoxy-6,6-difluoro-14β-hydroxy-3-methoxymorphinan Hydrochloride], the ED50 in data set [1] (setting [3]) was determined as 26 mg/kg; in data set [2] it was 10.8 mg/kg.
Take `CN1CC[C@]23c4c5ccc(O)c4O[C@H]2[C@@H](O)C=C[C@H]3[C@H]1C5` [Morphine SO4, reference compound]: the ED50 in data set [1] (setting [4]) was found to be 3 mg/kg.

Source of the values: US4236008A, “Fluorination of precursors for fluorine analogs of hydrocodone and oxycodone” (priority 1978, dated 1980).
